This is an account of results in patent US6342604B1, “Substitute pyrimidine compounds and the use thereof” (BASF Aktiengesellschaft, priority 1994, dated 2002).

Each structure is given as a SMILES string. Like-named read-outs stand apart in the source and are kept apart here.

This assay has as its target T1, human D3 receptor (Homo sapiens, UniProt P35462).
T1 construct: host or cells: CCL 1.3 mouse fibroblasts
The assay is described as follows: D3 receptor binding assay (125I-iodosulpiride displacement). To be noted: for Selectivity Ki D2/Ki D3: ratio of Ki D2 (3H-spiperone) to Ki D3 (125I-sulpiride). On the procedure: Cloned human D3 receptor-expressing CCL 1.3 mouse fibroblasts obtained from Res. Biochemicals Internat. One Strathmore Rd., Natick, Mass.
After 48 h, the cells were washed with PBS and incubated with 0.05% trypsin-containing PBS for 5 min. Neutralization with medium was then carried out, and the cells were collected by centrifugation at 300 xg. To lyze the cells, the pellet was briefly washed with lysis buffer (5 mM tris-HCl, pH 7.4, with 10% glycerol) and then incubated in a concentration of 10^7 cells/ml of lysis buffer at 4° C. for 30 min. The cells were centrifuged at 200 xg for 10 min and the pellet was stored in liquid nitrogen.
The non-specific binding was determined using 10^−6 M spiperone.
After 60 min, the free and the bound radioligand was separated by filtration through GF/B glass fiber filters (Whatman, England) on a Skatron cell collector (Skatron, Lier, Norway), and the filters were washed with ice-cold tris-HCl buffer, pH 7.4. The radioactivity collected on the filters was quantified using a Packard 2200 CA liquid scintillation counter.
The Ki values were determined by non-linear regression analysis using the LIGAND program.

Setting [1] is: cloned human D3 receptor, CCL 1.3 mouse fibroblast membranes, 0.1 nM 125iodosulpiride, read-out: Receptor binding D3 125I-sulpiride Ki.

T1 sequence (P35462 whole entry): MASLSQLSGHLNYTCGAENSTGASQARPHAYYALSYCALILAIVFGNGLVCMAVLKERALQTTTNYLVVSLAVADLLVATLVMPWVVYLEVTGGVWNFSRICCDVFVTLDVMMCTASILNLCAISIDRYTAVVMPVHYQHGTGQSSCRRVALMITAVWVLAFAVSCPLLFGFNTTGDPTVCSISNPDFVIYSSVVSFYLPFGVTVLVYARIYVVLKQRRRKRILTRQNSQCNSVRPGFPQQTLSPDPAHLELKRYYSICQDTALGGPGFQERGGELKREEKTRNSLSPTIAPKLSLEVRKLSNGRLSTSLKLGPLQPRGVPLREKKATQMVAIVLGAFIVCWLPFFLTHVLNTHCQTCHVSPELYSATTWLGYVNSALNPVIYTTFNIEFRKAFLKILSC

Consider `Oc1ccnc(SCCCN2CCN(c3cccc(C(F)(F)F)c3)CC2)n1` [Example 12], for which the inhibition constant (Ki) amounted to 4.2 nM and the “Selectivity Ki D2/Ki D3” value amounted to 85.
For `Oc1ccnc(SC/C=C/CN2CCN(c3cccc(C(F)(F)F)c3)CC2)n1` [Example 13], the “Selectivity Ki D2/Ki D3” value was 61. For the same compound, the Ki under setting [1] was 2.3 nM.
`CC(C)c1cccc(N2CCN(CCCSc3nccc(O)n3)CC2)c1` [Example 17]: the “Selectivity Ki D2/Ki D3” value was determined as 71. Besides, under setting [1], the Ki was determined as 2.8 nM.
Take `Oc1ccnc(SCCCN2CC=C(c3cccc(C(F)(F)F)c3)CC2)n1` [Example 19]: the Ki was found to be 3 nM and the “Selectivity Ki D2/Ki D3” value was determined as 58.
